Where a name gives a salt, the structure may show the parent alone.
Columns and labels:
[1] = tested on: A549-ACE2 infected with SARS-CoV-2; experiment: SARS-CoV-2 infection rate relative to DMSO; higher = more infection; conditions: 24 h
Calu-3 [2] = experiment: drug sensitivity score (DSS) for viability; higher = more toxic; extreme values may be limits of the assay; conditions: 72 h
HepG2 [3] = experiment: as above; conditions: 72 h
U2OS [4] = experiment: as above; conditions: 72 h
Caco-2 [5] = experiment: as above; conditions: 72 h
Vero E6 [6] = experiment: as above; conditions: 72 h
[7] = tested on: A549-ACE2 infected with SARS-CoV-2; experiment: cell count relative to DMSO; higher = less toxic; conditions: 24 h
[8] = tested on: A549-ACE2 infected with SARS-CoV-2; experiment: morphology score (similarity to uninfected cells); higher = more like uninfected cells; conditions: 24 h
A549-ACE2 [9] = experiment: drug-induced phospholipidosis relative to tamoxifen; higher = more phospholipidosis
A549-ACE2 [10] = experiment: phospholipidosis EC50; higher = less potent phospholipidosis inducer
Calu-3 [11] = experiment: relative viability EC50 (midpoint between 100% and the lowest measured viability); higher = less toxic; conditions: 72 h
U2OS [12] = experiment: as above; conditions: 72 h
Caco-2 [13] = experiment: as above; conditions: 72 h
Calu-3 [14] = experiment: cell viability relative to DMSO; higher = less toxic; conditions: 72 h
HepG2 [15] = experiment: as above; conditions: 72 h
U2OS [16] = experiment: as above; conditions: 72 h
Caco-2 [17] = experiment: as above; conditions: 72 h
Vero E6 [18] = experiment: as above; conditions: 72 h
HepG2 [19] = experiment: relative viability EC50 (midpoint between 100% and the lowest measured viability); higher = less toxic; conditions: 72 h
Vero E6 [20] = experiment: as above; conditions: 72 h

Oc1ccc2c3c1O[C@H]1c4c(c5ccccc5n4Cc4ccccc4)C[C@@]4(O)[C@@H](C2)N(CC2CC2)CC[C@]314 [N-benzylnaltrindole]
Conditions | SARS-CoV-2 infection rate [%] | cell count [%] | cell viability [%] | morphology score | phospholipidosis EC50 [µM]
A549-ACE2 [10], 24 h | – | – | – | – | 2.62
A549-ACE2 [10], 48 h | – | – | – | – | 4.61
A549-ACE2 [10], 72 h | – | – | – | – | 6.76
Caco-2 [17], 1 nM | – | – | 88.7 | – | –
Caco-2 [17], 10 nM | – | – | 99.7 | – | –
Caco-2 [17], 100 nM | – | – | 88.5 | – | –
Caco-2 [17], 1000 nM | – | – | 99 | – | –
Caco-2 [17], 10000 nM | – | – | 86.9 | – | –
Calu-3 [14], 1 nM | – | – | 96.9 | – | –
Calu-3 [14], 10 nM | – | – | 99.8 | – | –
Calu-3 [14], 100 nM | – | – | 106 | – | –
Calu-3 [14], 1000 nM | – | – | 100 | – | –
Calu-3 [14], 10000 nM | – | – | 38.9 | – | –
HepG2 [15], 1 nM | – | – | 102 | – | –
HepG2 [15], 10 nM | – | – | 98.9 | – | –
HepG2 [15], 100 nM | – | – | 103 | – | –
HepG2 [15], 1000 nM | – | – | 100 | – | –
HepG2 [15], 10000 nM | – | – | 54.8 | – | –
U2OS [16], 1 nM | – | – | 94.9 | – | –
U2OS [16], 10 nM | – | – | 102 | – | –
U2OS [16], 100 nM | – | – | 95.9 | – | –
U2OS [16], 1000 nM | – | – | 102 | – | –
U2OS [16], 10000 nM | – | – | 89.1 | – | –
Vero E6 [18], 1 nM | – | – | 100 | – | –
Vero E6 [18], 10 nM | – | – | 96 | – | –
Vero E6 [18], 100 nM | – | – | 95.1 | – | –
Vero E6 [18], 1000 nM | – | – | 96.2 | – | –
Vero E6 [18], 10000 nM | – | – | 70.1 | – | –
[1], 0.1 µM | 96 | – | – | – | –
[1], 0.3 µM | 94 | – | – | – | –
[1], 1 µM | 90 | – | – | – | –
[1], 3 µM | 69 | – | – | – | –
[7], 0.1 µM | – | 100 | – | – | –
[7], 0.3 µM | – | 101 | – | – | –
[7], 1 µM | – | 104 | – | – | –
[7], 3 µM | – | 108 | – | – | –
[8], 0.1 µM | – | – | – | 0.1 | –
[8], 0.3 µM | – | – | – | 0.1 | –
[8], 1 µM | – | – | – | 0.24 | –
[8], 3 µM | – | – | – | 0.47 | –

Conditions | drug sensitivity score | relative viability EC50 [µM]
Caco-2 [5] | 0 | –
Caco-2 [13] | – | > 10
Calu-3 [2] | 3.3 | –
Calu-3 [11] | – | 3.19
HepG2 [3] | 2.3 | –
U2OS [4] | 0 | –
U2OS [12] | – | > 10
Vero E6 [6] | 1.9 | –

drug-induced phospholipidosis [%], A549-ACE2 [9]
Conditions | 0.3 µM | 0.833333 µM | 3.33333 µM | 6.66667 µM | 10 µM | 30 µM
24 h | 4.31 | 4.24 | 48.7 | 70.1 | 59 | 26.2
48 h | 5.61 | 4.16 | 44.9 | 83.7 | 102 | –
72 h | 4.1 | 4.23 | 35.4 | 81.8 | 111 | –

CC/C(=C(\c1ccc(O)cc1)c1ccc(OCCNC)cc1)c1ccccc1 [Endoxifen HCl]
Conditions | SARS-CoV-2 infection rate [%] | cell count [%] | cell viability [%] | morphology score | phospholipidosis EC50 [µM]
A549-ACE2 [10], 24 h | – | – | – | – | 1.9
A549-ACE2 [10], 48 h | – | – | – | – | 3
A549-ACE2 [10], 72 h | – | – | – | – | 3.1
Caco-2 [17], 1 nM | – | – | 104 | – | –
Caco-2 [17], 10 nM | – | – | 115 | – | –
Caco-2 [17], 100 nM | – | – | 106 | – | –
Caco-2 [17], 1000 nM | – | – | 105 | – | –
Caco-2 [17], 10000 nM | – | – | 53.6 | – | –
Calu-3 [14], 1 nM | – | – | 102 | – | –
Calu-3 [14], 10 nM | – | – | 94 | – | –
Calu-3 [14], 100 nM | – | – | 96.6 | – | –
Calu-3 [14], 1000 nM | – | – | 100 | – | –
Calu-3 [14], 10000 nM | – | – | 5.1 | – | –
HepG2 [15], 1 nM | – | – | 110 | – | –
HepG2 [15], 10 nM | – | – | 95.4 | – | –
HepG2 [15], 100 nM | – | – | 103 | – | –
HepG2 [15], 1000 nM | – | – | 105 | – | –
HepG2 [15], 10000 nM | – | – | 36.5 | – | –
Vero E6 [18], 1 nM | – | – | 103 | – | –
Vero E6 [18], 10 nM | – | – | 105 | – | –
Vero E6 [18], 100 nM | – | – | 103 | – | –
Vero E6 [18], 1000 nM | – | – | 99.9 | – | –
Vero E6 [18], 10000 nM | – | – | 91.1 | – | –
[1], 0.3 µM | 100 | – | – | – | –
[1], 3 µM | 30 | – | – | – | –
[1], 10 µM | 8 | – | – | – | –
[1], 30 µM | 86 | – | – | – | –
[7], 0.3 µM | – | 98 | – | – | –
[7], 3 µM | – | 123 | – | – | –
[7], 10 µM | – | 118 | – | – | –
[7], 30 µM | – | 25 | – | – | –
[8], 0.3 µM | – | – | – | 0.02 | –
[8], 3 µM | – | – | – | 0.87 | –
[8], 10 µM | – | – | – | 0.84 | –
[8], 30 µM | – | – | – | -0.2 | –

Conditions | drug sensitivity score | relative viability EC50 [µM]
Caco-2 [5] | 2.1 | –
Calu-3 [2] | 5.3 | –
Calu-3 [11] | – | 3.19
HepG2 [3] | 3.1 | –
HepG2 [19] | – | 3.53
Vero E6 [6] | 0 | –
Vero E6 [20] | – | > 10

drug-induced phospholipidosis [%], A549-ACE2 [9]
Conditions | 0.3 µM | 0.833333 µM | 3.33333 µM | 6.66667 µM | 10 µM
24 h | 5.89 | 13.1 | 65.7 | 78.7 | 78.6
48 h | 5.61 | 7.92 | 62.4 | 83.1 | 77.4
72 h | 8.35 | 4.33 | 55.2 | 86.8 | 88.4

C=C1C(=O)O[C@@H]2C[C@@]3(C)CCC[C@H](C)C3=C[C@H]12 [alantolactone]
Conditions | SARS-CoV-2 infection rate, [1] [%] | cell count, [7] [%] | cell viability, Caco-2 [17] [%] | cell viability, HepG2 [15] [%] | cell viability, U2OS [16] [%] | cell viability, Vero E6 [18] [%] | morphology score, [8]
1 nM | – | – | 94.9 | 94.8 | 99.2 | 94.7 | –
10 nM | – | – | 99 | 102 | 96.4 | 95.8 | –
100 nM | – | – | 101 | 106 | 101 | 95.8 | –
0.3 µM | 104 | 100 | – | – | – | – | 0.1
1000 nM | – | – | 99.8 | 104 | 96.4 | 96.8 | –
3 µM | 92 | 98 | – | – | – | – | -0.12
10 µM | 91 | 97 | – | – | – | – | -0.07
10000 nM | – | – | 89.7 | 117 | 96.6 | 101 | –
30 µM | 35 | 9 | – | – | – | – | 0.21

Conditions | drug sensitivity score | relative viability EC50 [µM]
Caco-2 [5] | 0 | –
Caco-2 [13] | – | > 10
HepG2 [3] | 0 | –
HepG2 [19] | – | > 10
U2OS [4] | 0 | –
U2OS [12] | – | > 10
Vero E6 [6] | 0 | –
Vero E6 [20] | – | > 10

drug-induced phospholipidosis [%], A549-ACE2 [9]
Conditions | 0.3 µM | 0.833333 µM | 3.33333 µM | 6.66667 µM | 10 µM | 30 µM
24 h | 0.44 | -0.52 | -2.33 | -1.69 | -1.05 | 3.99
48 h | 0.11 | -0.81 | -1.92 | -1 | 0.04 | 3.39
72 h | 2.31 | -0.225 | -1.83 | -1.58 | 0.848 | 3.9

— the supplement of paper PMC13380429
